Assay results from ChEMBL document CHEMBL3217481, “2-Amino-5-arylbenzoxazole derivatives as potent inhibitors of fatty acid amide hydrolase (FAAH)” (Medchemcomm, 2012).

Experiments:
[1] = target: T1, Fatty-acid amide hydrolase 1 (Homo sapiens, UniProt O00519); assay: Inhibition of human FAAH expressed in HEK293 cells using arachadonyl 7-amino 4-methyl coumarin amide as substrate by fluorimetric assay; assay type: cell-based
T1 sequence (O00519 whole entry): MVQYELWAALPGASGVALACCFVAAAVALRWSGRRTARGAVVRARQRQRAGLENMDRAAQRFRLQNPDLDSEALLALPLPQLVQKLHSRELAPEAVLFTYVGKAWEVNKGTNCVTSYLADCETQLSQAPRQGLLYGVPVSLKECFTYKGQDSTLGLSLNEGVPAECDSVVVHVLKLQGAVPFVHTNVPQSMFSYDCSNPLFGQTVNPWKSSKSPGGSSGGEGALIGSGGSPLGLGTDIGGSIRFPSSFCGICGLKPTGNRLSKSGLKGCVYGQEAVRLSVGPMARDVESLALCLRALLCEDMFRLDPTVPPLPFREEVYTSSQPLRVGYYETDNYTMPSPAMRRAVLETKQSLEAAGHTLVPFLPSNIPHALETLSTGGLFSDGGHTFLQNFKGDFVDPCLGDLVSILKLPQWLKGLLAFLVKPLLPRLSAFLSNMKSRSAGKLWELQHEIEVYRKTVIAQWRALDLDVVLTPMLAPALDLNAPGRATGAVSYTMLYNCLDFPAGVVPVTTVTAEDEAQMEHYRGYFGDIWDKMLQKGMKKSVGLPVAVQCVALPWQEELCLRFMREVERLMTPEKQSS

[2] = target: T1, Fatty-acid amide hydrolase 1; assay: Reversible inhibition of full length human FAAH assessed as inhibition of 3[H]-anandamide hydrolysis preincubated for 3 hrs measured after 15 mins post substrate addition by cell-based assay
[3] = target: T2, Fatty-acid amide hydrolase 1 (Rattus norvegicus, UniProt P97612); assay: Inhibition of rat FAAH expressed in HEK293 cells using arachadonyl 7-amino 4-methyl coumarin amide as substrate by fluorimetric assay; assay type: cell-based
T2 sequence (P97612 whole entry): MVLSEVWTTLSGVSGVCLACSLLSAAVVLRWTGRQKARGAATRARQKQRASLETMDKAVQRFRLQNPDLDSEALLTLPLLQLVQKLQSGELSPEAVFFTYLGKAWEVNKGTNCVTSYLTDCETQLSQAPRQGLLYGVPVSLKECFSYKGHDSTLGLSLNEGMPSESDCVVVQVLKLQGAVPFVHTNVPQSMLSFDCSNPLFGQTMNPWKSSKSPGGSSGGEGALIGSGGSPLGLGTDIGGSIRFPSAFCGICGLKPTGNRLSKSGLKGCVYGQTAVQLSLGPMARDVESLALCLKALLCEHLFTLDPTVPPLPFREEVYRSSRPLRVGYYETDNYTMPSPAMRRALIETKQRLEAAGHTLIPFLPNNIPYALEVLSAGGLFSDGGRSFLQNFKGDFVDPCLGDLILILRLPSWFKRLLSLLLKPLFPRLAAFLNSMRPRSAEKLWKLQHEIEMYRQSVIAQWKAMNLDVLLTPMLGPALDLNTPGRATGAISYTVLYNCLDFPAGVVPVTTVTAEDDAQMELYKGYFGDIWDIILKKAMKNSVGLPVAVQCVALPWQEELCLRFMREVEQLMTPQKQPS

[4] = Inhibition of guinea pig brain FAAH; design: species or system Cavia porcellus
[5] = Inhibition of rabbit brain FAAH; design: species or system Oryctolagus cuniculus

IC50 [1] [nM] | SMILES | also measured
48 | Cn1ccc2cc(-c3ccc4oc(Nc5ccccc5)nc4c3)ccc21 | 
 | CCCCCCCC/C=C\CCCCCCCC(=O)C(F)(F)F | IC50 [2]: 187 nM
 | O=C(Nc1ccccc1)N1CCC(Cc2cnc3ccccc3c2)CC1 | IC50 [3]: 17 nM; IC50 [4]: 66 nM; IC50 [5]: 0.8 nM
12 | Cn1ccc2cc(-c3ccc4oc(N5Cc6ccccc6C5)nc4c3)ccc21 | IC50 [3]: 413 nM; IC50 [2]: 95 nM; IC50 [4]: 423 nM; IC50 [5]: 42 nM
211 | Cn1ccc2cc(-c3ccc4oc(N5Cc6cccnc6C5)nc4c3)ccc21 | 
54 | N#Cc1cc(-c2ccc3oc(NC4CCCCC4)nc3c2)ccc1O | 
121 | Cn1ccc2cc(-c3ccc4oc(N5Cc6ccncc6C5)nc4c3)ccc21 | 
579 | c1cc2c(ccn2C2COC2)cc1-c1ccc2oc(NC3CCCCC3)nc2c1 | 
> 1000 | Cn1ccc2cc(-c3ccc4nc(N5Cc6ccccc6C5)oc4c3)ccc21 | 
> 1000 | NC(=O)c1cccc(-c2ccc3oc(NC4CCCCC4)nc3c2)c1 | 
> 1000 | c1ccc(-c2ccc3oc(NC4CCCCC4)nc3c2)cc1 | 
214 | NC(=O)Cn1ccc2cc(-c3ccc4oc(NC5CCCCC5)nc4c3)ccc21 | 
168 | C[C@@H]1CN(c2nc3cc(-c4ccc5c(ccn5C)c4)ccc3o2)C[C@H](C)O1 | 
10 | COc1cc(-c2ccc3oc(N4Cc5ccccc5C4)nc3c2)ccn1 | 
911 | Cn1ccc2cc(-c3ccc4oc(NC5CCCCC5)nc4c3)ccc21 | 
52 | Cn1ncc2c(-c3ccc4oc(NC5CCCCC5)nc4c3)cccc21 | 
 | NC(=O)c1cccc(-c2cccc(OC(=O)NC3CCCCC3)c2)c1 [URB-597] | IC50 [4]: 26 nM; IC50 [5]: 0.8 nM
28 | COc1cccc(-c2ccc3oc(N4Cc5ccccc5C4)nc3c2)c1 | 
186 | Cn1ccc2cc(-c3ccc4oc(Nc5ccccn5)nc4c3)ccc21 | 
42 | Cn1ccc2cc(-c3ccc4oc(N5CCn6cccc6C5)nc4c3)ccc21 | 
> 1000 | Cn1ccc2cc(-c3ccc4oc(Nc5ccncc5)nc4c3)ccc21 | 
63 | Cn1ccc2cc(-c3ccc4oc(N5CCN(c6ccccc6)CC5)nc4c3)ccc21 | 

IC50 [1] [nM] | SMILES | also measured
18 | CCn1ccc2cc(-c3ccc4oc(Nc5ccccc5)nc4c3)ccc21 | IC50 [3]: 586 nM; IC50 [2]: 92 nM; IC50 [4]: 424 nM; IC50 [5]: 98 nM
14 | c1ccc2c(c1)CN(c1nc3cc(-c4ccc5nccn5c4)ccc3o1)C2 | 
280 | COc1ccc(Nc2nc3cc(-c4ccc5c(ccn5C)c4)ccc3o2)cc1 | 
> 1000 | c1cc2cc(-c3ccc4oc(NC5CCCCC5)nc4c3)cnc2[nH]1 | 
13 | COCc1ccc(-c2ccc3oc(N4Cc5ccccc5C4)nc3c2)cc1OC | 
> 1000 | c1cnc2ccc(-c3ccc4oc(NC5CCCCC5)nc4c3)cc2c1 | 
1.2 | Cn1ncc2cc(-c3ccc4oc(N5Cc6ccccc6C5)nc4c3)ccc21 | 
784 | Cn1ccc2cc(-c3ccc4oc(N5CCOCC5)nc4c3)ccc21 | 
99 | Cn1ccc2cc(-c3ccc4oc(Nc5ccc(F)cc5)nc4c3)ccc21 | 
> 1000 | Cn1ccc2cc(-c3cccc4nc(N5Cc6ccccc6C5)oc34)ccc21 | 
10 | COCc1ccc(-c2ccc3oc(N4Cc5ccccc5C4)nc3c2)cc1 | 
> 1000 | Cn1ccc2cc(-c3ccc4oc(N5CCNCC5)nc4c3)ccc21 | 
55 | Cn1ccc2cc(-c3ccc4oc(N5CCc6ccccc6C5)nc4c3)ccc21 | 
> 1000 | CNc1nc2cc(-c3ccc4c(ccn4C)c3)ccc2o1 | 
68 | CN(c1ccccc1)c1nc2cc(-c3ccc4c(ccn4C)c3)ccc2o1 | 
226 | Cn1ccc2cc(-c3ccc4oc(Nc5cccnc5)nc4c3)ccc21 | 
207 | CCn1ccc2cc(-c3ccc4oc(NC5CCCCC5)nc4c3)ccc21 | 
61 | Cn1ncc2cc(-c3ccc4oc(NC5CCCCC5)nc4c3)ccc21 | 
674 | Cn1ccc2cc(-c3ccc4oc(N5CCCC5)nc4c3)ccc21 | 
228 | COc1ccc(-c2ccc3oc(NC4CCCCC4)nc3c2)cc1C | 
488 | Cn1ccc2cc(-c3ccc4oc(Cc5ccccc5)nc4c3)ccc21 | 
3.2 | Cn1ncc2c(-c3ccc4oc(N5Cc6ccccc6C5)nc4c3)cccc21 | 
